From ChEMBL document CHEMBL3739277, “Design, synthesis, and antibacterial evaluation of novel azolylthioether quinolones as MRSA DNA intercalators” (2015)
≈ marks a conversion by molar mass, not a printed value.

What was measured:
Assay type in all cases: functional
[1] = system: Cyberlindnera jadinii; experiment: Antifungal activity against Candida utilis ATCC9950 assessed as growth inhibition incubated at 35 degC for 24 hrs by micro broth dilution method; conditions: Williopsis jadinii, ATCC9950, 24 h
[2] = system: Micrococcus luteus; experiment: Antibacterial activity against Micrococcus luteus ATCC4698 assessed as growth inhibition incubated at 37 degC for 24 hrs by micro broth dilution method; conditions: ATCC4698, 24 h
[3] = Antibacterial activity against Bacillus proteus ATCC13315 assessed as growth inhibition incubated at 37 degC for 24 hrs by micro broth dilution method; conditions: ATCC13315, 24 h
[4] = system: Pseudomonas aeruginosa; experiment: Antibacterial activity against Pseudomonas aeruginosa ATCC27853 assessed as growth inhibition incubated at 37 degC for 24 hrs by micro broth dilution method; conditions: ATCC27853, 24 h
[5] = system: Saccharomyces cerevisiae; experiment: Antifungal activity against Saccharomyces cerevisiae ATCC9763 assessed as growth inhibition incubated at 35 degC for 24 hrs by micro broth dilution method; conditions: ATCC9763, 24 h
[6] = system: Bacillus subtilis; experiment: Antibacterial activity against Bacillus subtilis ATCC6633 assessed as growth inhibition incubated at 37 degC for 24 hrs by micro broth dilution method; conditions: ATCC6633, 24 h
[7] = system: Candida albicans; experiment: Antifungal activity against Candida albicans ATCC10231 assessed as growth inhibition incubated at 35 degC for 24 hrs by micro broth dilution method; conditions: ATCC10231, 24 h
[8] = system: Staphylococcus aureus; experiment: Antibacterial activity against Staphylococcus aureus ATCC25923 assessed as growth inhibition incubated at 37 degC for 24 hrs by micro broth dilution method; conditions: ATCC25923, 24 h
[9] = system: Escherichia coli; experiment: Antibacterial activity against Escherichia coli JM109 assessed as growth inhibition incubated at 37 degC for 24 hrs by micro broth dilution method; conditions: JM109, 24 h
[10] = system: Aspergillus flavus; experiment: Antifungal activity against Aspergillus flavus ATCC204304 assessed as growth inhibition incubated at 35 degC for 24 hrs by micro broth dilution method; conditions: ATCC204304, 24 h
[11] = system: Staphylococcus aureus; experiment: Antibacterial activity against methicillin resistant Staphylococcus aureus N315 assessed as growth inhibition incubated at 37 degC for 24 hrs by micro broth dilution method; conditions: N315, 24 h
[12] = Antifungal activity against Candida mycoderma ATCC9888 assessed as growth inhibition incubated at 35 degC for 24 hrs by micro broth dilution method; conditions: Kregervanrija fluxuum
[13] = Antibacterial activity against Eberthella typhosa ATCC14028 assessed as growth inhibition incubated at 37 degC for 24 hrs by micro broth dilution method; conditions: ATCC14028, 24 h

SMILES | MIC80 [1] [µg/mL] | MIC [2] [µg/mL] | MIC [3] [µg/mL] | MIC [4] [µg/mL] | MIC80 [5] [µg/mL] | MIC [6] [µg/mL] | MIC80 [7] [µg/mL] | MIC [8] [µg/mL] | MIC [9] [µg/mL] | MIC80 [10] [µg/mL] | MIC [11] [µg/mL] | MIC80 [12] [µg/mL] | MIC [13] [µg/mL]
O=C(O)c1cn(C2CC2)c2c(Cl)c(N3CCC(NCC(O)Cn4cnc(S)n4)C3)c(F)cc2c1=O (stereo unspecified) | 4 (≈ 7.65 µM) | 2 (≈ 3.82 µM) | 1 (≈ 1.91 µM) | 4 (≈ 7.65 µM) | 8 (≈ 15.3 µM) | 0.5 (≈ 0.956 µM) | 2 (≈ 3.82 µM) | 0.5 (≈ 0.956 µM) | 1 (≈ 1.91 µM) | 8 (≈ 15.3 µM) | 4 (≈ 7.65 µM) | 8 (≈ 15.3 µM) | 0.5 (≈ 0.956 µM)
CCn1cc(C(=O)O)c(=O)c2cc(F)c(N3CCN(CC(O)Cn4cnc(S)n4)CC3)cc21 (stereo unspecified) | 64 (≈ 134 µM) | 64 (≈ 134 µM) | 128 (≈ 269 µM) | 64 (≈ 134 µM) | 128 (≈ 269 µM) | 128 (≈ 269 µM) | 128 (≈ 269 µM) | 128 (≈ 269 µM) | 64 (≈ 134 µM) | 512 (≈ 1070 µM) | 64 (≈ 134 µM) | 128 (≈ 269 µM) | 64 (≈ 134 µM)
O=C(O)c1cn(C2CC2)c2c(Cl)c(N3CCC(NCC(O)CSc4ncn(Cc5ccc(Cl)c(Cl)c5)n4)C3)c(F)cc2c1=O (stereo unspecified) | 8 (≈ 11.7 µM) | 0.5 (≈ 0.733 µM) | 0.5 (≈ 0.733 µM) | 0.5 (≈ 0.733 µM) | 16 (≈ 23.5 µM) | 0.5 (≈ 0.733 µM) | 0.5 (≈ 0.733 µM) | 0.5 (≈ 0.733 µM) | 1 (≈ 1.47 µM) | 8 (≈ 11.7 µM) | 0.5 (≈ 0.733 µM) | 1 (≈ 1.47 µM) | 0.5 (≈ 0.733 µM)
CCn1cc(C(=O)O)c(=O)c2cc(F)c(N3CCN(CC4CO4)CC3)cc21 (stereo unspecified) | 8 (≈ 21.3 µM) | 8 (≈ 21.3 µM) | 4 (≈ 10.7 µM) | 16 (≈ 42.6 µM) | 1 (≈ 2.66 µM) | 64 (≈ 170 µM) | 4 (≈ 10.7 µM) | 8 (≈ 21.3 µM) | 2 (≈ 5.33 µM) | 1 (≈ 2.66 µM) | 2 (≈ 5.33 µM) | 1 (≈ 2.66 µM) | 16 (≈ 42.6 µM)
O=C(O)c1cn(C2CC2)c2cc(N3CCN(CC(O)CSc4ncn(Cc5ccc(Cl)cc5Cl)n4)CC3)c(F)cc2c1=O (stereo unspecified) | 4 (≈ 6.18 µM) | 2 (≈ 3.09 µM) | 2 (≈ 3.09 µM) | 4 (≈ 6.18 µM) | 64 (≈ 98.8 µM) | 2 (≈ 3.09 µM) | 32 (≈ 49.4 µM) | 1 (≈ 1.54 µM) | 2 (≈ 3.09 µM) | 16 (≈ 24.7 µM) | 1 (≈ 1.54 µM) | 16 (≈ 24.7 µM) | 1 (≈ 1.54 µM)
Sc1ncn(Cc2ccc(Cl)c(Cl)c2)n1 | 512 (≈ 1970 µM) | 256 (≈ 984 µM) | 512 (≈ 1970 µM) | 512 (≈ 1970 µM) | 512 (≈ 1970 µM) | 512 (≈ 1970 µM) | 512 (≈ 1970 µM) | 256 (≈ 984 µM) | 256 (≈ 984 µM) | 512 (≈ 1970 µM) | 128 (≈ 492 µM) | 256 (≈ 984 µM) | 512 (≈ 1970 µM)
O=C(O)c1cn(C2CC2)c2cc(N3CCNCC3)c(F)cc2c1=O [CIPROFLOXACIN] | – | – | 1 (≈ 3.02 µM) | 1 (≈ 3.02 µM) | – | 1 (≈ 3.02 µM) | – | – | – | – | – | – | 1 (≈ 3.02 µM)
CCn1cc(C(=O)O)c(=O)c2cc(F)c(N3CCNCC3)cc21 [NORFLOXACIN] | – | 2 (≈ 6.26 µM) | 8 (≈ 25.1 µM) | 4 (≈ 12.5 µM) | – | 1 (≈ 3.13 µM) | – | 2 (≈ 6.26 µM) | 2 (≈ 6.26 µM) | – | 2 (≈ 6.26 µM) | – | 1 (≈ 3.13 µM)
Cn1nnnc1SCC(O)CN1CCN(c2cc3c(cc2F)c(=O)c(C(=O)O)cn3C2CC2)CC1 (stereo unspecified) | 256 (≈ 508 µM) | 8 (≈ 15.9 µM) | 4 (≈ 7.94 µM) | 16 (≈ 31.8 µM) | 8 (≈ 15.9 µM) | 8 (≈ 15.9 µM) | 8 (≈ 15.9 µM) | – | 8 (≈ 15.9 µM) | 8 (≈ 15.9 µM) | – | 16 (≈ 31.8 µM) | –
CCn1cc(C(=O)O)c(=O)c2cc(F)c(N3CCN(CC(O)CSc4nnnn4C)CC3)cc21 (stereo unspecified) | 64 (≈ 130 µM) | 64 (≈ 130 µM) | 128 (≈ 260 µM) | 128 (≈ 260 µM) | 128 (≈ 260 µM) | 32 (≈ 65.1 µM) | 32 (≈ 65.1 µM) | 128 (≈ 260 µM) | 8 (≈ 16.3 µM) | 64 (≈ 130 µM) | 128 (≈ 260 µM) | 64 (≈ 130 µM) | 32 (≈ 65.1 µM)
CCn1cc(C(=O)O)c(=O)c2cc(F)c(N3CCN(CC(O)CSc4nccn4C)CC3)cc21 (stereo unspecified) | 64 (≈ 131 µM) | 32 (≈ 65.4 µM) | 64 (≈ 131 µM) | 64 (≈ 131 µM) | 128 (≈ 261 µM) | 16 (≈ 32.7 µM) | 16 (≈ 32.7 µM) | 16 (≈ 32.7 µM) | 8 (≈ 16.3 µM) | 256 (≈ 523 µM) | 64 (≈ 131 µM) | 64 (≈ 131 µM) | 16 (≈ 32.7 µM)
